Results: PMC12491715 (Acta Pharmaceutica Sinica. B, 2025)

Key:
[1] = target: T1, hBChE (Homo sapiens, UniProt P06276); experiment: ChE IC50 determination, method of Ellman, hBChE; assay type: biochemical; details: for ChE inhibition of the leaving groups: ChEs (hBChE and hAChE); for remaining activity at 100 µM: residual activity at 100 μmol/L, read-out: hBChE RA±SD (residual activity); for remaining activity at 100 µM / IC50: after 5 min preincubation; for IC50: read-out: hBChE IC50±SD; for hBChE time-dependency observed: Yes/No: pre-incubation time varied
T1 sequence (P06276 29-602): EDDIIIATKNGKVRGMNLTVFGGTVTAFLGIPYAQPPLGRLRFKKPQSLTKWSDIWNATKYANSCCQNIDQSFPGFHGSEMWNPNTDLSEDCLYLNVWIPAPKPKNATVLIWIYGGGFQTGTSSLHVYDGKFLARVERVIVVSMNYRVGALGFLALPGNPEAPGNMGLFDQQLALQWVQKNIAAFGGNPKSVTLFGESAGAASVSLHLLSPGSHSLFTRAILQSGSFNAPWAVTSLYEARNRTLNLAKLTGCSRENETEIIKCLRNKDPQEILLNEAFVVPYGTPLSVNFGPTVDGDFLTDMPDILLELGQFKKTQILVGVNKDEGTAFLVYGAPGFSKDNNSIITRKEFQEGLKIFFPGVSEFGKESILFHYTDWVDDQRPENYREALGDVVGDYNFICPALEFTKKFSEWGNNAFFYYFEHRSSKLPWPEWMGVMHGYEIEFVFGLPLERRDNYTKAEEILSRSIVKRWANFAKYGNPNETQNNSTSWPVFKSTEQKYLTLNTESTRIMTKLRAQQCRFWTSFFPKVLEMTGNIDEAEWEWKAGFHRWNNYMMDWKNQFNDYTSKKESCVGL
Procedure: (§1) The inhibitory potencies of the compounds against the ChEs were determined using the method of Ellman following the procedure described previously. Briefly, compound stock solutions in DMSO were incubated with Ellman’s reagent and ChEs (final concentrations: 370 μmol/L Ellman’s reagent, approximately 1 nmol/L or 50 pmol/L hBChE or hAChE, respectively) in 0.1 mol/L sodium phosphate pH 8.0 for 5 min at 20 °C. For time-dependency measurements, the pre-incubation time was varied (1, 5, 15, 30 or 60 min). The reactions were started by the addition of the substrate (final concentration, 500 μmol/L butyrylthiocholine iodide or acetylthiocholine iodide for hBChE and hAChE, respectively). The final content of DMSO was always 1%. The increase in absorbance at 412 nm was monitored for 2 min using a 96-well microplate reader (Synergy HT, BioTek Instruments, VT, USA). The initial velocities in the presence (vi) and absence (v0) of the test compounds were calculated. The inhibitory potencies were expressed as the residual activities, according to Eq. (1):(1) RA = vi / v0
(§2) For IC50 determinations, at least seven different concentrations for each compound were used. The IC50 values were obtained by plotting the residual ChE activities against the applied inhibitor concentrations, with the experimental data fitted to a four-parameter logistic function (GraphPad Prism 9.4). Tacrine and donepezil were used as positive controls.

[2] = target: hAChE (Homo sapiens, UniProt P22303); experiment: ChE IC50 determination, method of Ellman, hAChE; assay type: biochemical; details: for remaining activity at 100 µM: residual activity at 100 μmol/L, read-out: hAChE RA±SD (residual activity); for remaining activity at 100 µM / IC50: after 5 min preincubation; for IC50: read-out: hAChE IC50±SD; for hAChE time-dependency observed: Yes/No: pre-incubation time varied
hAChE, sequence (P22303 32-614): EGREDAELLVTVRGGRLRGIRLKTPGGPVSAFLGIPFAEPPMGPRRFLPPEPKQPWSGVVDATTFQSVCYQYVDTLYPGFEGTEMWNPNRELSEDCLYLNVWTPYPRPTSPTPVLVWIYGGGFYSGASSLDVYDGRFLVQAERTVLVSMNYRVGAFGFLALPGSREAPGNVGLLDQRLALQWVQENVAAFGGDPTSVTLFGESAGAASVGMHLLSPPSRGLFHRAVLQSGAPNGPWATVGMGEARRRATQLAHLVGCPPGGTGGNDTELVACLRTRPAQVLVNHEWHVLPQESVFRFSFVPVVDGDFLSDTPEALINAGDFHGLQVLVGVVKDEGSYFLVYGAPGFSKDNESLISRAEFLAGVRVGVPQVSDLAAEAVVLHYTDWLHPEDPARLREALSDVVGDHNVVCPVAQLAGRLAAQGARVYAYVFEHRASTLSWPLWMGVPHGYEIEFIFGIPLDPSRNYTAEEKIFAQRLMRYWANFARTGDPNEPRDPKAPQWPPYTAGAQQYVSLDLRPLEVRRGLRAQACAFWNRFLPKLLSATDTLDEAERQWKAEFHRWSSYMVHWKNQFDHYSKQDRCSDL
Procedure: as §1, §2

[3] = Aqueous stability (UPLC); assay type: physicochemical; details: for t1/2 in aqueous solution / k: PBS:EtOH = 80:20, 10 mmol/L; for k: pseudo-first order; for half-life: buffer, PBS:EtOH = 80:20, calculated half-lives only approximates, read-out: t1/2 in aqueous solution (converted)
Procedure: For the aqueous stability determination, UPLC analyses were performed as described under Chemistry–General Information. The method used a Waters Acquity UPLC® HSS C18 SB column (2.1 mm× 50 mm, 1.8 μm) thermostated at 40 °C, with: injection volume, 5 μL; flow rate, 0.4 mL/min; detector λ, 220 nm; mobile phase A: 0.1% TFA (v/v) in MilliQ water; mobile phase B: MeCN. Gradient: 0–5 min, 20%–100% B; 5–6 min, 20% B.
Compound stock solutions (100 mmol/L) were prepared in absolute EtOH, while the internal standard (caffeine) was dissolved in PBS (0.1 mg/mL). The aqueous stability solutions were prepared by mixing 1200 μL PBS with internal standard, 150 μL absolute EtOH, and 150 μL compound stock solution in a HPLC vial to give 10 mmol/L compound concentration in PBS/EtOH = 80:20, which was injected immediately and then at hourly intervals for 48 h. The analyte AUCs were normalized on internal standard AUCs and compared with the timepoint zero. For the rate calculation, pseudo-first order kinetics were assumed.
For investigation of compound 8 stability in an aqueous medium, its stock solution (10,000 mg/L) was prepared in EtOH. 15 μL of the stock solution was mixed with 60 μL of caffeine (2500 mg/L in EtOH) and 1425 μL of the respective aqueous solution/buffer to achieve final concentration of 100 mg/L with 5% ethanol content. The UPLC analysis was carried as described above.

[4] = target: T1, hBChE; experiment: hBChE binding kinetics: carbamoylation and decarbamoylation, initial velocity measurements; assay type: biochemical
Procedure: The progress curves for the time courses of product formation for the hydrolysis of butyrylthiocholine iodide were measured on an Agilent Cary 3500 UV–VIS spectrophotometer with Compact Peltier (thermostated at 25 °C) at 412 nm using a 0.6 mL cuvette (optical path–0.5 cm). 30 mmol/L Tris buffer pH 7.0 with 1 mg/mL BSA and 0.02% NaN3 was used and all dilutions were done in glass vessels (note: dilute hBChE solutions rapidly lose activity, presumably due to adsorption to plastic, preventing meaningful decarbamoylation assays. In our hands, under the above conditions only, the diluted and stock solutions of hBChE were stable for at least a month at room temperature.). Total volume in the cuvette was always 500 μL, and enzyme solutions that gave upon dilution v0 = (dA/dt) ≈ 0.5 (for carbamoylation) and ≈ 1 for (for decarbamoylation) were used. For carbamoylation experiments, 0.5–1 μL of enzyme stock, 5 μL of compound solution, and 484 μL of buffer were preincubated for the specified time, then 10 μL of the mixture of 25 mmol/L Ellman’s reagent (DTNB) and 20 mmol/L butyrylthiocholine (large excess to prevent substrate depletion) were added, quickly mixed, and measurement started. […] The data analysis followed the literature[63]^,[98].

[5] = tested on: SH-SY5Y cells; experiment: Neuroprotection assay against Aβ1–42, 7-AAD flow cytometry; assay type: cell-based, human; details: 5 μmol/L compound, 5 μmol/L fibrillar Aβ1–42, 48 h
Procedure: (§3) Cell culture and treatments The human neuroblastoma SH-SY5Y cell line was purchased from American Type Culture Collection (Manassas, VA, USA). Cells were cultured in Advanced Dulbecco’s modified Eagle’s medium (Gibco, Thermo Fisher Scientific, Waltham, MA, USA) supplemented with 10% fetal bovine serum (FBS, Gibco), 2 mmol/L L-glutamine, 50 U/mL penicillin and 50 μg/mL streptomycin (Sigma, St. Louis, MO, USA) in a humidified atmosphere of 95% air and 5% CO2 at 37 °C, and grown to 80% confluence. Prior to cell treatment, complete medium was replaced with serum-reduced medium (i.e., with 2% FBS). Compounds were prepared as a stock solution of 50 mmol/L in DMSO.
Neuroprotection assay The neuroprotective effect of compounds on cytotoxic effect of Aβ1–42 was determined with the fluorescent intercalator 7-aminoactinomycin D (7-AAD) assessed by flow cytometry. Prior to cell treatment, the peptide Aβ1–42 (Merck Millipore, Darmstadt, Germany) was dissolved in DMSO at a concentration of 1 mmol/L and was incubated at 100 μmol/L in 1 mol/L HCl at 37 °C for 24 h to induce Aβ aggregation. […] Cells were then analysed for cytotoxicity by flow cytometry on Attune NxT flow cytometer (Thermo Fisher Scientific). The percentage of 7AAD positive (7AADpos) cells was evaluated using FlowJo software (FlowJo, LLC., Ashland, OR, USA).

[6] = tested on: caspase-3 activity in SH-SY5Y cells; experiment: Caspase-3 activity in lysates of Aβ1–42-treated cells; assay type: cell-based, human; details: 5 μmol/L compound, 5 μmol/L fibrillar Aβ1–42, 24 h
Procedure: as §3
Caspase-3 activity and Western blot analysis The activity of caspases-3 was determined in total cell lysates of the SH-SY5Y cells treated as described. […] Following cell treatment for 24 h, cell lysates were prepared, and the caspase-3 activity was assessed using the fluorescent peptide substrate N-acetyl-L-α-aspartyl-L-α-glutamyl-L-valyl-N-[2-oxo-4-(trifluoromethyl)-2H-1-benzopyran-7-yl]-L-α-asparagine (Ac-DEVD-AFC; Bachem). […] Immediately after the addition of the substrate, fluorescence was monitored continuously for 30 min at an excitation wavelength of 405 nm and an emission wavelength of 535 nm using a Tecan Safire[2] fluorescence microplate reader. […]

CCC1(c2cn[nH]n2)Cc2ccccc2C1 [Compound 14, 4-(2-Ethylindan-2-yl)-2H-1,2,3-triazole]
ChE inhibition of the leaving groups [1]: ineffective
remaining activity at 100 µM [1]: 82%
remaining activity at 100 µM [2]: 85%

CCC1(c2cncn2C)Cc2ccccc2C1 [Compound 12, 5-(2-Ethylindan-2-yl)-1-methyl-1H-imidazole]
ChE inhibition of the leaving groups [1]: ineffective
remaining activity at 100 µM [1]: 67%
remaining activity at 100 µM [2]: 74%

CCC1(c2nc[nH]n2)Cc2ccccc2C1 [Compound 16, 3-(2-Ethylindan-2-yl)-1H-1,2,4-triazole]
ChE inhibition of the leaving groups [1]: ineffective
remaining activity at 100 µM [1]: 89%
remaining activity at 100 µM [2]: 83%

CCC1(c2cn(C(=O)N3CCCCC3)cn2)Cc2ccccc2C1 [Compound 9, (4-(2-Ethylindan-2-yl)-1H-imidazol-1-yl)(piperidin-1-yl)methanone]
IC50 [1]: 2.5 ± 2 nM
hBChE time-dependency observed: Yes/No [1]: Yes
IC50 [2]: 7550 ± 2140 nM
hAChE time-dependency observed: Yes/No [2]: Yes

CCC1(c2cn(C(=O)N(C)C)c[n+]2C)Cc2ccccc2C1.O=S(=O)([O-])C(F)(F)F [Compound 13, 1-(Dimethylcarbamoyl)-4-(2-ethylindan-2-yl)-3-methyl-1H-imidazol-3-ium trifluoromethanesulfonate]
IC50 [1]: 8.4 ± 4.6 nM
hBChE time-dependency observed: Yes/No [1]: Yes
IC50 [2]: 3190 ± 400 nM
hAChE time-dependency observed: Yes/No [2]: Yes
t1/2 in aqueous solution [3]: 0.55 days
k [3]: 0.05236 h–1

CCC1(c2cnn(C(=O)N(C)C)n2)Cc2ccccc2C1 [Compound 15, 4-(2-Ethylindan-2-yl)-N,N-dimethyl-2H-1,2,3-triazole-2-carboxamide]
IC50 [1]: 1.9 ± 0.5 nM
hBChE time-dependency observed: Yes/No [1]: Yes
IC50 [2]: 234 ± 46 nM
hAChE time-dependency observed: Yes/No [2]: Yes
k [3]: 0.000982 h–1
half-life [3]: ~29 days

CCC1(c2cn(C(=S)N(C)C)cn2)Cc2ccccc2C1 [Compound 11, 4-(2-Ethylindan-2-yl)-N,N-dimethyl-1H-imidazole-1-carbothioamide]
hBChE time-dependency observed: Yes/No [1]: Yes
remaining activity at 100 µM [1]: 49%
remaining activity at 100 µM [2]: 69%

CCC1(c2ncn(C(=O)N(C)C)n2)Cc2ccccc2C1 [Compound 17, 3-(2-Ethylindan-2-yl)-N,N-dimethyl-1H-1,2,4-triazole-1-carboxamide]
IC50 [1]: 5 ± 1.2 nM
hBChE time-dependency observed: Yes/No [1]: Yes
IC50 [2]: 2930 ± 1280 nM
hAChE time-dependency observed: Yes/No [2]: Yes
k [3]: 0.000628 h–1
half-life [3]: ~46 days

CCC1(c2cn(C(=O)N(C)C)cn2)Cc2ccccc2C1 [Compound 6, 4-(2-Ethylindan-2-yl)-N,N-dimethyl-1H-imidazole-1-carboxamide]
selectivity for hBChE over hAChE [1]: 2500 fold
IC50 [1]: 14 ± 2 nM
hBChE time-dependency observed: Yes/No [1]: Yes
IC50 [2]: 32800 nM
hAChE time-dependency observed: Yes/No [2]: Yes
Ki [4]: 116 ± 3 nM
kcarb, carbamoylation ([4]; 25 °C): 9.0±2.5 min^–1
kdecarb, decarbamoylation ([4]; 25 °C): 3.59±0.28 ×10^–2 h^–1
t1/2, decarbamoylation ([4]; 25 °C): 0.804 ± 0.0625 days
ΔG25°C‡, carbamoylation ([4]; 25 °C): 18.6 ± 0.2 kcal/mol
t1/2 in aqueous solution ([3]; during 48 h): stable
7-AAD-positive cells after Aβ1–42 treatment [5]: significant reduction
caspase-3 activity after Aβ1–42 treatment [6]: significant reduction

CCC1(c2cn(C(=O)N(C)Cc3ccccc3)cn2)Cc2ccccc2C1 [Compound 10, N-Benzyl-4-(2-ethylindan-2-yl)-N-methyl-1H-imidazole-1-carboxamide]
IC50 [1]: 53 ± 10 nM
hBChE time-dependency observed: Yes/No [1]: Yes
hAChE time-dependency observed: Yes/No [2]: Yes
remaining activity at 100 µM [2]: 34%
